We go through 41 compounds from PubChem BioAssay AID1996.

≈ marks a conversion by molar mass, not a printed value. Bounds are passed on as bounds.

For the data set the following is noted: buffer; pH 7.4; 200.0 µM.
On to `CSc1nccn1C(=O)c1ccccc1[N+](=O)[O-]`, for which the solubility (kinetic) (commonly solubility judged after dilution from a stock solution rather than from solid) is above 39.5 µg/mL.

`CSc1ccccc1NC(=O)CSc1cccc[n+]1[O-]` displayed a solubility (kinetic) above 46 µg/mL.

On to `O=C(CNC(=O)c1ccccc1F)N/N=C/c1ccco1`, for which the solubility (kinetic) is above 43.4 µg/mL.

`CC1CN(c2ccc(Cl)cc2)c2nc3c(c(=O)[nH]c(=O)n3C)n2C1` (stereo unspecified) returned a kinetic solubility of 1.2 µg/mL (≈ 3.47 µM).

Consider `Cc1cc(C)c2cc(C(=O)N(C)C3CCN(C)CC3)[nH]c2c1`, for which the solubility (kinetic) turned out to be 21 µg/mL (≈ 70.1 µM).

`CC(NC(=O)c1cccc(F)c1)C1CC2CCC1C2` (stereo unspecified): the solubility (kinetic) is 19.9 µg/mL (≈ 76.1 µM).

The compound `NC(=S)NC1CC2CC1C1C=CCC21` (stereo unspecified) gave a kinetic solubility above 31.2 µg/mL.

Take `COc1ccc(N=c2ssnc2Cl)cc1`: the kinetic solubility was found to be 0.4 µg/mL (≈ 1.55 µM).

Compound `O=C(Nc1ccc(NS(=O)(=O)c2ccccc2)cc1)c1ccccc1Cl` registered a solubility (kinetic) of 6.1 µg/mL (≈ 15.8 µM).

The compound `O=C(Nc1ccccc1)Nc1ccno1` gave a solubility (kinetic) above 30.5 µg/mL.

`CCOC(=O)C1CCCN(CCC(=O)Nc2cc(C)cc(C)c2)C1` (stereo unspecified) showed a kinetic solubility above 49.9 µg/mL.

In turn, `CCN(C(=O)COC(=O)/C(C#N)=C/c1ccc(N(C)C)cc1)C1CCS(=O)(=O)C1` (stereo unspecified) showed a solubility (kinetic) of 4.8 µg/mL (≈ 11.4 µM).

For the compound `COc1ccc(C(=O)C2CCCN(CCO)C2)c(C)c1` (stereo unspecified), the kinetic solubility is 30.3 µg/mL (≈ 109 µM).

Turning to `O=C(NC1CCCCC1)c1cc([N+](=O)[O-])ccc1N1CCCC1`, the solubility (kinetic) is 3.3 µg/mL (≈ 10.4 µM).

In turn, `O=C(CN1C(=O)c2ccccc2S1(=O)=O)NC1CCCCC1` yielded a solubility (kinetic) above 48.4 µg/mL.

On to `CC(C)N(c1ccccc1)c1ccc(NC(=S)NCCN(C)C)cc1`, for which the solubility (kinetic) turned out to be 44 µg/mL (≈ 123 µM).

For the compound `CC1CCCCN1C(=O)CSc1nc(-c2ccccc2)cn1N` (stereo unspecified), the solubility (kinetic) is above 49.6 µg/mL.

Compound `Br.Fc1cccc(CNCC2CCCO2)c1` (stereo unspecified) gave a solubility (kinetic) of 42.2 µg/mL.

In turn, `O=C(Nc1ccccc1)NC1(C(=O)N2CCC(O)CC2)CCCCC1` had a solubility (kinetic) above 51.8 µg/mL.

Compound `CCOC(=O)Cn1c2ccccc2c2nc(C)sc21` registered a solubility (kinetic) above 41.2 µg/mL.

`Cn1c(=S)[nH]c2sc3c(c2c1=O)CCC(C(C)(C)C)C3` (stereo unspecified): the solubility (kinetic) was below 0.3 µg/mL.

In the case of `C=CCN(Cc1cccs1)C(=O)COc1ccc2c(c1)OCO2`, the kinetic solubility was above 49.7 µg/mL.

Compound `N=C1C(c2nc3ccccc3[nH]2)=C(O)CN1C1CCCCC1` had a kinetic solubility of 0.4 µg/mL (≈ 1.35 µM).

In turn, `COc1ccc(CC(=O)OCC(=O)NC2CCCCC2)cc1OC` had a solubility (kinetic) above 50.3 µg/mL.

For `COc1ccccc1CNC(=O)c1cc2ccccc2oc1=O`, the solubility (kinetic) was below 0.7 µg/mL.

`Cc1ccc(/C=N/NC(=O)c2ccc3nc[nH]c3c2)s1` registered a solubility (kinetic) above 42.7 µg/mL.

`CN(C)Cc1ccccc1Sc1ccc2c(c1)CCCC2.O=C(O)C(=O)O`: the kinetic solubility worked out at 5.5 µg/mL.

Compound `CC1(NS(=O)(=O)c2ccc(Cl)s2)CCS(=O)(=O)C1` (stereo unspecified) yielded a solubility (kinetic) above 49.5 µg/mL.

Regarding `NS(=O)(=O)c1ccc(Sc2nc3ccccc3s2)c([N+](=O)[O-])c1`, the kinetic solubility came to 1.7 µg/mL (≈ 4.63 µM).

`CN(C)C1(CNC(=O)Cc2ccccc2F)CCCCC1` displayed a solubility (kinetic) of 42.2 µg/mL (≈ 144 µM).

Take `CC(C)CC(=O)Nc1ccc(Oc2ccc3c(c2)C(=O)NC3=O)cc1`: the solubility (kinetic) is 0.4 µg/mL (≈ 1.18 µM).

`COc1ccc(NC(=S)Nc2ccc(F)cc2)cc1` gave a solubility (kinetic) of 27.7 µg/mL (≈ 100 µM).

Consider `CC(C)C(C)NC(=O)COc1ncnc2sccc12` (stereo unspecified), for which the kinetic solubility is above 41.9 µg/mL.

As to `Cn1cc(C=O)c2cc(F)ccc21`, the kinetic solubility was above 26.6 µg/mL.

As to `CCC1(C)Cc2ccccc2-c2nc(NCCCO)n(C)c(=O)c21` (stereo unspecified), the kinetic solubility was above 49.1 µg/mL.

In turn, `CC(=O)N1CC(C(=O)Nc2ccc3c(c2)OCO3)Oc2ccccc21` (stereo unspecified) displayed a kinetic solubility above 51.1 µg/mL.

`COc1ccc(S(=O)(=O)N2CCCC2)c2ccccc12` yielded a solubility (kinetic) of 0.9 µg/mL (≈ 3.09 µM).

In turn, `CC(=O)Oc1ccc2c(=O)c(/C=N/c3cc(=O)[nH]c(=S)[nH]3)coc2c1` had a kinetic solubility of 30.6 µg/mL (≈ 85.6 µM).

`CCCCn1c(C)c(C(=O)O)c2cc(OC)c3ccccc3c21`: the solubility (kinetic) amounted to 2.9 µg/mL (≈ 9.31 µM).

As for `O=C(NCC(=O)N1CCN(c2ncccn2)CC1)c1ccccc1OC(F)F`, the kinetic solubility stood at 52.2 µg/mL (≈ 133 µM).

As to `CCCN(CC(=O)Nc1ccccc1OC)C(=O)c1cc2ccccc2o1`, the kinetic solubility stood at 25.5 µg/mL (≈ 69.6 µM).
